# PMC10641831 (Journal of Medicinal Chemistry, 2023)
# Values joined by “and” are separate entries in the source; they are usually repeats but may differ in a detail not shown here. Equal values may be shown once. Read-outs that look alike come from different tables or passages of the source. Numbered stars: 1 amine (or outer) side, 2 acyl side, 3 side chain; on linkers, the order of the positions; unused ones are H or OH. Bridge positions count the residues as written; N and C are the ends. Square brackets hold non-standard residues; d marks the D form. Peptide text beside a SMILES is read from it. AMPB(E) = O=C(c1ccc(/N=N/c2ccc(CN[*:1])cc2)cc1)[*:2]; X1 = O=C([C@H](Cc1ccc(/N=N/c2ccccc2)cc1)N[*:1])[*:2]
# Tests used:
# [1] = target: T1, hOTR (Homo sapiens, UniProt P30559); assay: IP-One accumulation assay, agonist function, HEK293 cells expressing hOTR; format: cell-based; conditions: for agonist character at OTR: IP-One assay; for potency difference between the E and Z isomers at OTR: EC50 E vs Z
# T1 construct: expressed in transfected cells
# T1 sequence (P30559 1-389): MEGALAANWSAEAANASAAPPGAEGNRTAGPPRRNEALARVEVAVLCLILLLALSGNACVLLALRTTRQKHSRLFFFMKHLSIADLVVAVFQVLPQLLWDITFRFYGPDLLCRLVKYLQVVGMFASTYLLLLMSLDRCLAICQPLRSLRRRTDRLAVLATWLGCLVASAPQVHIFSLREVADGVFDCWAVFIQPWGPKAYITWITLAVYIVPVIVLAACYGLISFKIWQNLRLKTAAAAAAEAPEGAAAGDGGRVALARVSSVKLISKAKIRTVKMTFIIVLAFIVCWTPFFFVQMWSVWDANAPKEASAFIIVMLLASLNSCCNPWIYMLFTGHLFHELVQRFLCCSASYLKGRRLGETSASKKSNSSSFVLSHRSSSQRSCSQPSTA
# [2] = Thermal half-life of the Z-isomer (UV/vis, 96-well plate); format: physicochemical; conditions: for t1/2 (thermal half-life, Figure S50): 50 µM in HEPES buffer + 0.25% DMSO, pre-irradiated with 340 nm; for t1/2 (thermal half-life Z to E): preirradiation with 340 nm
# Description: All photoprobes were investigated regarding their photophysical properties in aqueous buffer (pH 7.5), mimicking the conditions of the biological functional assays. […] Upon irradiation with 340 nm light for 10 s and monitoring via UV/vis spectroscopy, all compounds could be switched to the Z-isomer, reaching the photostationary state (PSS). Compounds 8–17 containing azobenzene could be switched back to the E-isomer by irradiation at 420 nm for 60 s. Compounds 18 and 19 containing arylazopyrazole could be reverted to the E isomer by using 528 nm light. […] The PSS, when switched to the Z-isomer, was consistently good, with a PSS of 81–95%. […] The thermal half-lives of 10 and 12 were also measured at 37 °C, representing the temperature during the biological assays. As expected, the thermal half-lives decreased, however, the ratio of E and Z isomers remained stable during the incubation period of the biological assays (1 h).
# Starting materials and commercial reagents were purchased from Acros, Alfa Aesar, Fisher, Fluka, Fluorochem, Merck (Sigma-Aldrich), TCI and VWR and were used without further purification. Solvents were used in p.a. quality or dried according to common procedures if necessary. All reactions with oxygen- or moisture-sensitive reagents were carried out in glassware that was dried before use by heating under vacuum. Dry nitrogen or argon was used for an inert gas atmosphere. All NMR spectra were measured at room temperature (20 °C) using a Bruker Avance 400 (400 MHz for ^1H and 101 MHz for ^13C) or a Bruker Avance 600 (600 MHz for ^1H and 151 MHz for ^13C) NMR spectrometer. All chemical shifts are reported in δ-scale as parts per million [ppm] (multiplicity, coupling constant J, number of protons) relative to the solvent residual peaks. Coupling constants J are given in hertz [Hz]. Abbreviations used for signal multiplicity: ^1H NMR: s = singlet, d = doublet, dd = doublet of doublets, ddd = doublet of doublets of doublets, dt = doublet of triplets, t = triplet, td = triplet of doublets, q = quartet, and m = multiplet. All mass spectra were recorded on an Agilent Q-TOF 6540 UHD, Finnigan MAT SSQ 710 A, Jeol AccuTOF GCX or ThermoQuest Finnigan TSQ 7000 spectrometer. Absorption spectra were recorded on an UV/vis Agilent Cary 50 spectrometer. Thermal half-lives were measured on a 96-well plate in a Thermo Scientific Multiskan Spectrum. Analytical TLC was performed on silica gel-coated alumina plates (MN precoated TLC-sheets ALUGRAM Xtra SIL G/UV254). Visualization was done using UV light (254 or 366 nm) or staining with ninhydrin solution. Column chromatography was performed on a Biotage Isolera One automated flash purification system with a UV/vis detector. Analytical RP-HPLC was carried out on an Agilent 1220 Infinity LC System (column: P/No 00F-4251-B0, Phenomenex Luna 3 μm C18(2) 100 Å, LC column 150 mm × 2.0 mm). Purification by preparative HPLC was conducted on a preparative HPLC Agilent 1260 Infinity LC System [column: P/No 00G-4253-P0-AX, Phenomenex Luna 10 μm C18(2) 100 Å, LC column 250 mm × 21.2 mm]. The eluent systems were used as specified. After the purification process, solvents were removed by lyophilization. Switching experiments were done with a 340 nm LED (SSC VIOSYS CUD4AF1B, 500 mA, 55 mW), 420 nm LED (ILH-XC01-S410-SC211-WIR200, 800 mA, 440 mW), and 528 nm LED (OSRAM Oslon SSL 80 green, 500 mA, 34 mW). Purity of all photoprobes was >95% as determined by analytical RP-HPLC at 220 nm in DMSO.
# 1.3.4. Thermal Half-lives
# Thermal half-lives were measured in a 96-well plate in a Thermo Scientific Multiskan® Spectrum at 25 °C (and at 37 °C for compounds 10 and 12). The solutions (50 µM in HEPES buffer + 0.25% DMSO) were pre-irradiated with 340 nm. The absorption at 335 nm was measured every 3 h. The data was analyzed using Origin 2021.
# 0,7 1/2 ExpDec1 Fit of Sheet1 B
# Modell ExpDec1 0,35 Modell ExpDec1
# 0,6 Gleichung y = A 1 *e xp (-x/t1 ) + y0 Gleichung y = A 1 *e xp (-x/t1 ) + y0 […]
# [3] = Photostationary state by analytical C18-RP-HPLC; format: physicochemical; conditions: for PSS (E → Z): irradiation with 340 nm, HEPES buffer; for PSS (Z → E): irradiation with 420 nm (8–17) or 528 nm (18, 19)
# Method: All photoprobes were investigated regarding their photophysical properties in aqueous buffer (pH 7.5), mimicking the conditions of the biological functional assays.
# 1.3.2. Photostationary States
# Photostationary states (PSS) were measured on analytical C18-RP-HPLC (flow: 0.3 mL/min, solvent A: H2O (0.05% TFA), solvent B: MeCN). To determine the PSS of the photoswitches, the samples (in 0.1 mM in HEPES buffer + 1% DMSO, pH 7.5) were irradiated first with 340 nm to get the Z-isomer. Afterwards, the sample was irradiated with 420 nm (8-17) or 528 nm (18 and 19), respectively, to get back to the E-isomer. The samples were measured at the isosbestic points.
# [4] = target: T2, hV1bR (Homo sapiens, UniProt P47901); assay: IP-One accumulation assay, agonist function, HEK293 cells expressing hV1bR; format: cell-based; conditions: supplementary CSV; read-out: activity Z-isomer V1bR
# T2 construct: expressed in transfected cells
# T2 sequence (P47901 1-424): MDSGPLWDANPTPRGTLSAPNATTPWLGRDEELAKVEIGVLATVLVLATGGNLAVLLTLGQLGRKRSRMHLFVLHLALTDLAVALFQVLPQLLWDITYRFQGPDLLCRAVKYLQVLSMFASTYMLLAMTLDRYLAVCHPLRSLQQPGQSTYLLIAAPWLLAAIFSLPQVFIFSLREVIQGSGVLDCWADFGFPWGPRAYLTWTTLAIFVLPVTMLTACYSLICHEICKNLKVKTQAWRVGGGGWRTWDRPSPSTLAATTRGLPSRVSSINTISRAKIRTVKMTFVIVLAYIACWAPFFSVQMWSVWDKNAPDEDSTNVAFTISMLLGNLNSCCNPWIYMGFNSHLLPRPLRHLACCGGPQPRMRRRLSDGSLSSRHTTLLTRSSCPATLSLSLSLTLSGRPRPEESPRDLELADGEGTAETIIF
# [5] = supplementary CSV, read-out: activity E-isomer OTR
# [6] = supplementary CSV, read-out: activity Z-isomer OTR
Molecule,decrease in potency compared to OT at OTR ([1]; EC50 vs OT),"Emax ([1]; HEK293, relative to the effect of OT, read-out: OTR Emax ± SEM)",agonist character at OTR [1],"EC50 ([1]; IP-One, both isomers, read-out: EC50 at OTR)","EC50 [1, 5]","EC50 [1, 6]","t1/2 (thermal half-life, Figure S50) ([2]; 25 °C)","t1/2 (thermal half-life Z to E) ([2]; 25 °C, HEPES buffer pH 7.4)",PSS (E → Z) [3],potency difference between the E and Z isomers at OTR [1],"t1/2 (thermal half-life, Figure S50) ([2]; 37 °C)",t1/2 (thermal half-life Z to E) ([2]; 37 °C),PSS (Z → E) [3],EC50 [4]
"CC[C@H](C)[C@@H]1NC(=O)[C@H](Cc2ccc(/N=N/c3ccccc3)cc2)NC(=O)[C@@H](N)CSSC[C@@H](C(=O)N2CCC[C@H]2C(=O)N[C@@H](CC(C)C)C(=O)NCC(N)=O)NC(=O)[C@H](CC(N)=O)NC(=O)[C@H](CCC(N)=O)NC1=O [compound 8, [AzbS^2]-OT] (H-C[X1]IQNCPLG-NH2; disulfide 1-6)",> 1400 fold,35 to 45%,partial agonism,3 to 4 µM,4.5 ± 1.01 µM,3.5 ± 1.89 µM,132 h,132 h,94%,,,,,
"CC[C@H](C)[C@@H]1NC(=O)[C@H](Cc2ccc(O)cc2)NC(=O)[C@@H](N)CSSC[C@@H](C(=O)N[C@@H](Cc2ccc(/N=N/c3ccccc3)cc2)C(=O)N[C@@H](CC(C)C)C(=O)NCC(N)=O)NC(=O)[C@H](CC(N)=O)NC(=O)[C@H](CCC(N)=O)NC1=O [compound 9, [AzbS^7]-OT] (H-CYIQNC[X1]LG-NH2; disulfide 1-6)",,,full agonist,,0.346 ± 0.03 µM,0.136 ± 0.006 µM,72 h,72 h,93%,2.5 fold,,,,
"CC[C@H](C)[C@@H]1NC(=O)[C@H](Cc2ccc(O)cc2)NC(=O)[C@@H](N)CSSC[C@@H](C(=O)NCc2ccc(/N=N/c3ccc(C(=O)NCC(N)=O)cc3)cc2)NC(=O)[C@H](CC(N)=O)NC(=O)[C@H](CCC(N)=O)NC1=O [compound 10, [AzbL^7/8]-OT] (H-CYIQNC[AMPB(E)]G-NH2; disulfide 1-6)",,,potent agonists,,0.0946 ± 0.019 µM,0.0307 ± 0.004 µM,40.8 h,40.8 h,86%,3.1 fold and 3 fold,24 h,24 h,81%,
"CC[C@H](C)[C@@H]1NC(=O)[C@H](Cc2ccc(O)cc2)NC(=O)[C@@H](N)CSSC[C@@H](C(=O)NCc2ccc(/N=N/c3ccc(C(=O)N[C@@H](CC(C)C)C(=O)NCC(N)=O)cc3)cc2)NC(=O)[C@H](CC(N)=O)NC(=O)[C@H](CCC(N)=O)NC1=O [compound 11, [AzbL^7]-OT] (H-CYIQNC[AMPB(E)]LG-NH2; disulfide 1-6)",,,potent agonists,,0.263 ± 0.021 µM,0.134 ± 0.017 µM,28.8 h,28.8 h,87%,2 fold,,,85%,
"NC(=O)CC[C@@H]1NC(=O)[C@H](Cc2ccccc2)NC(=O)[C@H](Cc2ccc(O)cc2)NC(=O)[C@@H](N)CSSC[C@@H](C(=O)NCc2ccc(/N=N/c3ccc(C(=O)N[C@@H](CCCN=C(N)N)C(=O)NCC(N)=O)cc3)cc2)NC(=O)[C@H](CC(N)=O)NC1=O [compound 14, [AzbL^7]-VP] (H-CYFQNC[AMPB(E)]RG-NH2; disulfide 1-6)",,,,,,,,,,,,,,2.37 ± 0.607 µM
"[AzbC(m,m)^1,Dap^6]-VP [compound 17]",,,,,,,686 h,686 h,93%,,,,88%,
"[AzbC(m,o)^1,Dap^6]-VP [compound 16]",,,,,,,74.4 h,74.4 h,89%,,,,83%,
"[AzpC(m)^1,Dap^6]-VP [compound 19]",,,,,,,1310 h,1310 h,93%,,,,87%,
"[AzpC(o)^1,Dap^6]-VP [compound 18]",,,,,,,158 h,158 h,94%,,,,82%,
